Reference: US6849598B1, “Therapeutic compositions comprising bactericidal/permeability-increasing (BPI) protein products” (XOMA, priority 1995, dated 2005)
In brackets after ≈: the same amount, converted by molar mass. Where two headings read alike, the source gives them in different places.

Experiments:
A. baumannii = test: Antibiotic susceptibility (MIC, Sensititre Trays) with rBPI21 poloxamer formulations; format: cell-based; settings: for MIC: Acinetobacter baumannii, read-out: Minimum Inhibitory Concentration
Description: (§1) The effect of therapeutic compositions of rBPI21 formulated with poloxamer, with or without EDTA, was evaluated on the antibiotic susceptibility of the multiple drug resistant A. baumannii, S. pneumoniae, E. faecium and P. aeruginosa organisms of Example 5. Therapeutic compositions were prepared containing 2 mg/mL rBPI21, (5 mM sodium citrate, 150 mM NaCl) with a 0.2% (w/v) concentration of PLURONIC F68, P103, P104, P105 or P123. The effect on the antibiotic susceptibility of the organisms was determined in Mueller-Hinton Broth plus Cations (CSMHB, Remel), or 40% pooled human serum in CSMHB (Sigma, St. Louis, Mo.), as follows.
(§2) Isolated colonies of the organism from overnight cultures were suspended in Microscan® Inoculum Water to a concentration equivalent to a 0.5 McFarland Standard (approximately 1×10^8 CFU/ml), determined using a Microscan® turbidimeter. Aliquots were transferred to either CSMHB or 40% pooled human serum in CSMHB. Each tube contained either a final concentration of 16 μg/mL rBPI21 or an equivalent volume of control buffer. Minimal inhibitory concentrations (MIC) for each antibiotic tested, i.e. the lowest concentration of antibiotic which inhibits visible growth, were determined using gram-negative (MB and MC) and gram-positive (MA) Sensititre Trays (Radiometer America, Westlake, Ohio), which allow for the rapid and simultaneous survey of a broad spectrum of standard antibiotics. Any other antimicrobial panel systems known in the art, such as the Microscan® (Dade Microscan, Sacramento, Calif.), Pasco (DIFCO, Detroit, Mich.) and Alamar (Alamar, Sacramento, Calif.) systems, may alternatively be used to assay for antibiotic susceptibility.
(§3) Tables 12-15 below display a summary of the results of the antibiotic screening panels, reported for each strain tested as the MIC of the tested antibiotics in the presence of the indicated rBPI21 therapeutic composition. The antibiotic susceptibility standards (interpretation of an MIC as clinically resistant (R), intermediate (I) or susceptible (S) according to NCCLS standards) applicable to the organism tested appear in superscript next to the MIC.

P. aeruginosa = test: as above; format: cell-based; settings: for MIC: Pseudomonas aeruginosa, read-out: Minimum Inhibitory Concentration
Description: as §1, §2, §3

[1] = CSMHB, 16 μg/mL rBPI21 with F68
[2] = CSMHB, 16 μg/mL rBPI21 with P103
[3] = CSMHB, 16 μg/mL rBPI21 with P104
[4] = CSMHB, 16 μg/mL rBPI21 with P105
[5] = CSMHB, 16 μg/mL rBPI21 with P123
[6] = Serum, 16 μg/mL rBPI21 with F68
[7] = Serum, 16 μg/mL rBPI21 with P103
[8] = Serum, 16 μg/mL rBPI21 with P104
[9] = Serum, 16 μg/mL rBPI21 with P105
[10] = Serum, 16 μg/mL rBPI21 with P123

With `O=C(N[C@H](CO)[C@H](O)c1ccc([N+](=O)[O-])cc1)C(Cl)Cl` [Chloramphenicol] the MIC (A. baumannii; [1]) was 1 µg/mL (≈ 3.09 µM), the MIC (A. baumannii; [2]) was < 0.5 µg/mL and the MIC (A. baumannii; [3]) was 1 µg/mL (≈ 3.09 µM). For the same molecule, the MIC (A. baumannii; [4]) was < 0.5 µg/mL, the MIC (A. baumannii; [5]) was < 0.5 µg/mL and the MIC (A. baumannii; CSMHB, Control (no BPI)) was > 4 µg/mL. For the same molecule, the MIC (A. baumannii; [6]) was > 4 µg/mL, the MIC (A. baumannii; [7]) was 2 µg/mL (≈ 6.19 µM) and the MIC (A. baumannii; [8]) was 4 µg/mL (≈ 12.4 µM). For the same molecule, the MIC (A. baumannii; [9]) was > 4 µg/mL, the MIC (A. baumannii; [10]) was > 4 µg/mL and the MIC (A. baumannii; Serum, Control (no BPI)) was > 4 µg/mL. The “susceptibility interpretation of MIC (superscript)” value (“susceptibility interpretation” for short) (A. baumannii; [1]) was “S”, the “susceptibility interpretation” value (A. baumannii; [2]) was “S” and the “susceptibility interpretation” value (A. baumannii; [3]) was “S”. For the same molecule, the “susceptibility interpretation” value (A. baumannii; [4]) was “S”, the “susceptibility interpretation” value (A. baumannii; [5]) was “S” and the “susceptibility interpretation” value (A. baumannii; CSMHB, Control (no BPI)) was “R”. The “susceptibility interpretation” value (A. baumannii; [6]) was “R”, the “susceptibility interpretation” value (A. baumannii; [7]) was “S” and the “susceptibility interpretation” value (A. baumannii; [8]) was “R”. The “susceptibility interpretation” value (A. baumannii; [9]) was “R”, the “susceptibility interpretation” value (A. baumannii; [10]) was “R” and the “susceptibility interpretation” value (A. baumannii; Serum, Control (no BPI)) was “R”. The “susceptibility interpretation” value (P. aeruginosa; [1]) was “R”, the “susceptibility interpretation” value (P. aeruginosa; [2]) was “I” and the “susceptibility interpretation” value (P. aeruginosa; [3]) was “R”. The “susceptibility interpretation” value (P. aeruginosa; [4]) was “I”, the “susceptibility interpretation” value (P. aeruginosa; [5]) was “I” and the “susceptibility interpretation” value (P. aeruginosa; CSMHB, Control (no BPI)) was “R”. For the same molecule, the MIC (P. aeruginosa; [1]) was > 32 µg/mL, the MIC (P. aeruginosa; [2]) was 16 µg/mL (≈ 49.5 µM) and the MIC (P. aeruginosa; [3]) was > 32 µg/mL. For the same molecule, the MIC (P. aeruginosa; [4]) was 16 µg/mL (≈ 49.5 µM), the MIC (P. aeruginosa; [5]) was 16 µg/mL (≈ 49.5 µM) and the MIC (P. aeruginosa; CSMHB, Control (no BPI)) was > 32 µg/mL. The MIC (P. aeruginosa; [6]) was > 32 µg/mL, the MIC (P. aeruginosa; [7]) was 16 µg/mL (≈ 49.5 µM) and the MIC (P. aeruginosa; [8]) was 16 µg/mL (≈ 49.5 µM). For the same molecule, the MIC (P. aeruginosa; [9]) was 16 µg/mL (≈ 49.5 µM), the MIC (P. aeruginosa; [10]) was 16 µg/mL (≈ 49.5 µM) and the MIC (P. aeruginosa; Serum, Control (no BPI)) was > 32 µg/mL. For the same molecule, the “susceptibility interpretation” value (P. aeruginosa; [6]) was “R”, the “susceptibility interpretation” value (P. aeruginosa; [7]) was “I” and the “susceptibility interpretation” value (P. aeruginosa; [8]) was “I”. For the same molecule, the “susceptibility interpretation” value (P. aeruginosa; [9]) was “I”, the “susceptibility interpretation” value (P. aeruginosa; [10]) was “I” and the “susceptibility interpretation” value (P. aeruginosa; Serum, Control (no BPI)) was “R”.
`CC(C)(O/N=C(\C(=O)N[C@@H]1C(=O)N2C(C(=O)[O-])=C(C[n+]3ccccc3)CS[C@H]12)c1csc(N)n1)C(=O)O` [Ceftazidime] was tested, and the MIC (A. baumannii; [1]) was 32 µg/mL (≈ 58.5 µM), the MIC (A. baumannii; [2]) was < 4 µg/mL and the MIC (A. baumannii; [3]) was < 4 µg/mL. For the same molecule, the MIC (A. baumannii; [4]) was < 4 µg/mL, the MIC (A. baumannii; [5]) was < 4 µg/mL and the MIC (A. baumannii; CSMHB, Control (no BPI)) was 16 µg/mL (≈ 29.3 µM). The MIC (A. baumannii; [6]) was 32 µg/mL (≈ 58.5 µM), the MIC (A. baumannii; [7]) was 16 µg/mL (≈ 29.3 µM) and the MIC (A. baumannii; [8]) was 16 µg/mL (≈ 29.3 µM). The MIC (A. baumannii; [9]) was 16 µg/mL (≈ 29.3 µM), the MIC (A. baumannii; [10]) was 16 µg/mL (≈ 29.3 µM) and the MIC (A. baumannii; Serum, Control (no BPI)) was > 32 µg/mL. For the same molecule, the “susceptibility interpretation” value (A. baumannii; [1]) was “R”, the “susceptibility interpretation” value (A. baumannii; [2]) was “S” and the “susceptibility interpretation” value (A. baumannii; [3]) was “S”. The “susceptibility interpretation” value (A. baumannii; [4]) was “S”, the “susceptibility interpretation” value (A. baumannii; [5]) was “S” and the “susceptibility interpretation” value (A. baumannii; CSMHB, Control (no BPI)) was “I”. For the same molecule, the “susceptibility interpretation” value (A. baumannii; [6]) was “R”, the “susceptibility interpretation” value (A. baumannii; [7]) was “I” and the “susceptibility interpretation” value (A. baumannii; [8]) was “I”. The “susceptibility interpretation” value (A. baumannii; [9]) was “I”, the “susceptibility interpretation” value (A. baumannii; [10]) was “I” and the “susceptibility interpretation” value (A. baumannii; Serum, Control (no BPI)) was “R”.
